The subject of one data set is female rats. The settings on record: for diaphragmatic inflammation, severity grade / thickness of the diaphragm section involved by inflammation: 7 days intraperitoneal. On the procedure:
A maximum tolerated dose study was conducted according to the study design in Table 3. Solutions that were administered were made up of a dextrose concentrate or a modified dextrose concentrate and a buffer concentrate or a modified buffer concentrate mixed in a 3:1 ratio (dextrose:buffer). Each test or control article was administered intraperitoneally once daily for 7 consecutive days to each of five different female rats at volumes of 40 mL/kg via a butterfly needle as a bolus injection. Necropsy was performed one day after the last dose.
Tissue samples of the diaphragms from all rats were trimmed, processed, embedded in paraffin, and sectioned. Hematoxylin and eosin stained slides were prepared and examined by light microscopy. Microscopic observations were subjectively graded based on the relative severity of the change: Grade 1=minimal, Grade 2=mild, Grade 3=moderate, grade 4=marked.

For data set [1], the system named is APOe-KO/CRF mouse model of vascular calcification. Conditions: for total aortic calcium content, effect on CRF-induced elevation: daily intraperitoneal, 8 weeks. As for the experimental part: Homozygous apolipoprotein E knockout (apoE^−/−) mice were housed in polycarbonate cages in a pathogen-free, temperature-controlled (25° C.) room with a strict 12-hour light/dark cycle and with free access to lab chow and water. All procedures were in accordance with National Institutes of Health (“NIH”) guidelines for the care and use of experimental animals (NIH publication No. 85-23).
A 2-step procedure was used to create CRF in the mice at 10 weeks of age. Briefly, at age of 8 weeks, cortical electrocauterisation was applied to the right kidney through a 2-cm flank incision and contralateral total nephrectomy was performed through a similar incision 2 weeks later. Other mice underwent a 2-step procedure of sham operations with decapsulation of both kidneys with a 14-day distance between the two operations. Blood samples were taken 2 weeks after nephrectomy, and intra-peritoneal catheters were implanted at this time.
At the end of the study, the heart with the aortic root was then separated from ascending aorta. Cryosections of the aortic root tissue were used for quantification of vascular calcification and were used to assess atherosclerotic lesions at the site of the root. The thoracic part of the aorta was stored at −80° C. and used for quantification of calcium content.
Mice having high LDL will develop atherosclerosis. Those with the added partial nephrectomy will develop kidney impairment and were expected to produce marked vascular calcification of the heart and aorta, thus mimicking the disease seen in many dialysis patients. All groups were treated in a manner to mimic a peritoneal dialysis therapy, with a peritoneal dialysis solution either in the absence of PPi (sham and CRF placebo control groups) or containing two different doses of PPi (as outlined above).
Next, a method was employed whereby morphological image processing algorithms were used for the semi-automated measurement of calcification from sections of aorta stained using von Kossa's silver nitrate procedure (FIGS. 3A and 3B). These were acquired at low magnification power on color images. The process was separated into two sequential phases: 1) segmentation to separate the calcification structures and demarcate the region of the atherosclerotic lesion within the tissue, and 2) the quantification. Calcified structures were measured inside and outside the lesion using a granulometric curve that allows the calculation of statistical parameters of size.

Like-named read-outs stand apart in the source and are kept apart here.

`O=P([O-])([O-])OP(=O)(O)O.[Na+].[Na+]` [disodium pyrophosphate]: in the data set with female rats (600 μM), the “diaphragmatic inflammation, severity grade” value is reported as “mild (Grade 2)” and the “thickness of the diaphragm section involved by inflammation” value is listed as 5-25%. Besides, in the data set with female rats (900 μM), the “diaphragmatic inflammation, severity grade” value is “mild in 1 rat and moderate in 4 of 5 rats”; the “thickness of the diaphragm section involved by inflammation” value was “up to 50%”. Besides, the “concentration producing chronic inflammation of the peritoneal surface of the diaphragm (local effect)” value in the data set with female rats (intraperitoneal, 7 consecutive days, 40 mL/kg/day, rats) is at least 600 µM.

Consider `O=P(O)(O)OP(=O)(O)O` [pyrophosphate], for which the “total aortic calcium content, effect on CRF-induced elevation” value in data set [1] (30 μM PPi in dialysis solution) is “moderate reduction, that was not statistically significant”; in data set [1] (150 μM PPi in dialysis solution) it was “completely blocked the effect of CRF on elevation of aortic calcium”. Moreover, the “aortic root calcification inside the atherosclerotic lesion (von Kossa)” value in data set [1] (high dose PPi (150 μM)) is reported as “completely prevented the elevation due to CRF”. In addition, the “aortic root calcification outside the lesion (von Kossa)” value in data set [1] (high dose PPi (150 μM)) and in data set [1] (low dose PPi (30 μM)) was “totally blocked” throughout. The “inhibition of aortic root calcification inside the atherosclerotic lesion (von Kossa)” value in data set [1] (low dose PPi (30 μM)) is given as “approximately 50%”.

Source of the values: patent US20110262555A1, “METHODS AND COMPOSITIONS FOR REDUCING OR PREVENTING VASCULAR CALCIFICATION DURING PERITONEAL DIALYSIS THERAPY” (BAXTER INTERNATIONAL INC., priority 2010, published 2011).
